Measurements published in paper PMC8465649, “Semaphorin 3A—Glycosaminoglycans Interaction as Therapeutic Target for Axonal Regeneration” (Pharmaceuticals, 2021).
Values belong to the molecule of their own block, whether it stands above or below them. Ends that are not written are not given here.

Tests used:
[1] = SPR binding to immobilized biotinylated CS-A
Procedure: (§1) The interaction between Sema3A basic tail and GAGs was analyzed using several methods: chromatographic elution as a function of NaCl concentration based on affinity to a heparin sepharose column, surface plasmon resonance (SPR), NMR [52], and molecular dynamics simulations. Firstly, we observed that SCTWT binds to a heparin-Sepharose column and the protein is only released at about 1M NaCl (>50% of buffer B, Figure 3c), similar to the widely reported antithrombin–heparin interaction, indicating a SCTWT-heparin high-affinity, in the 10^−7–10^−9 M range [54]. Next, SPR measurements were performed to characterize protein–heparin binding kinetics. […]
(§2) All SPR experiments were performed on a Biacore T-100 instrument (Cytiva, formally GE Healthcare, Marlborough, MA, USA) in HBS-T buffer (10 mM HEPES, 150 mM NaCl, 0.05% Tween-20, pH 7.5) at 25 °C. […] The SPR experiments were performed in duplicate and the dissociation constant (Kd) values and binding levels are expressed as the mean and standard deviation from the individual experiments.

[2] = Heparin affinity chromatography (NaCl gradient elution); type: binding
Procedure: Figure 3 SPR sensorgrams of increasing amounts (0 to 1 μM) of the SCTWT construct flown over (HBS-T buffer) (a) immobilized biotinylated heparin (350 RU) (b) CD Spectra of 5 μM Sema3A C-terminal region in the absence (blue) and the presence of 1 μM UFH (orange), measured at pH 5.5 in 10 mM NaP. […] SCTWT was loaded onto a HiTrap Heparin column equilibrated with […] (pH 7.5), and eluted with a linear gradient to 2 M NaCl. Left ordinate axis, absorbance; righ ordinate axis, % NaCl (% B).
A prepacked 1-mL HiTrap Heparin HP affinity column (GE Healthcare) was used on a AKTA purifier system to perform heparin affinity chromatography. Then, 100 μL of SCT samples at ~100 μM were injected and run at 1 mL/min in a linear gradient with buffer A = 10 mM Tris-HCl, pH = 7.5 and buffer B = 10 mM Tris-HCl, 2M NaCl, pH = 7.5.

[3] = NMR competition (WaterLOGSY / spin-lock filtered 1H): displacement of FS2/FS3 peptides from heparin agarose resin; type: binding; settings: pH 7.5; for displacement of FS3 peptide from heparin agarose resin: spin-lock filtered 1D 1H NMR, 1 mM peptide, 1 mM peptoid
Procedure: NMR competition experiments involved the acquisition of 1D-^1H WaterLOGSY or spin-lock filtered NMR spectra. Thus, FS2 peptide is displaced from heparin agarose resin by CSIC02 (1:1 peptoid/FS2, both 1 mM), but not by CSIC03 (Figure S15). […] We reasoned that if CSIC02 was able to interact with GAG and displace FS2/FS3 basic peptides, it may also interfere with SCTWT–heparin interaction. To investigate if CSIC02 could displace SCTWT from heparin dp14 and to define the SCTWT residues affected, 2D NMR ^1H-^15N HSQC CSP experiments were used. Figure 8a illustrates the chemical shift effects of CSIC02 addition to a sample of SCTWT containing dp14 heparin. […] In Figure 8b, we display the chemical shift perturbation of SCTWT NMR spectra in the presence of dp14 and CSIC02. Thus, as the two CSP plots in Figure 4b and Figure 8b were calculated using as reference SCTWT alone in solution, we can compare them directly. […] Moreover, splitting of signals for some residues (R733, R734, and Q735 in the first GAG-binding region) was observed (Figure 8c). This observation is compatible with the presence of different species in slow chemical exchange in solution, with partial detachment of SCTWT from heparin. The amount of CSIC02 used in these experiments can be rationalized considering that the SCTWT has ca. 12 positive charges at neutral pH (Figure S18), while CSIC02 is tricationic. Since the binding is mediated by ionic polar interactions, a large excess of CSIC02 is needed to counterbalance the SCTWT-dp14 binding.
Next, 1D ^1H T1ρ relaxation filtered and WaterLOGSY NMR experiments were acquired at 25 °C on a 500-MHz spectrometer (Varian Inova; Agilent Technologies, Santa Clara, CA, USA) equipped with an AutoX inverse double-resonance probe with a z-shielded pulsed-field gradient coil. The samples were prepared in a 5-mm Wilmad NMR 528-PP tubes with 10 mM Tris-d11 (for peptide/GAG samples) and 150 mM NaCl dissolved in 90% H2O/10% D2O at pH 7.5. All spectra were obtained with a sweep width of 8 kHz and 16,384 acquired data points. The experiments were recorded using the standard pulse sequence in the (WLOGSY_ES) Chempack library, with excitation sculpting to suppress water resonances. For Water-LOGSY experiments, the first water-selective 180° pulse was 25 ms long. The spectra were acquired with 1200 transients and a spin-lock pulse of 50 ms at 3.7 kHz. To phase Water-LOGSY spectra correctly, it is necessary to use an internal reference compound. In our case, the reference is the residual ethanol absorbed/bonded in heparin-agarose resin (this interaction was previously confirmed with T1ρ filtered experiments), which appears as a positively phased signal. […]

[4] = SPR binding to immobilized biotinylated heparin; settings: Table S3
Procedure: as §1
as §2, with “experiments. […]” for “experiments.”

[5] = system: Sema3A chemorepulsive activity; design: method as in PMID 19615921; settings: cited from earlier work
[6] = Potentiometric titration (protonation state); type: physicochemical; settings: 25 °C, 0.15 M NaCl
Procedure: UV absorbance was measured using a SpectraMax M5 spectrophotometer (Molecular Devices, Sunnyvale, CA, USA). The experiments were performed with a 10 μM methylene blue (MB) solution in 5 mM Tris-HCl buffer at pH 7.5, to which increasing amounts of heparin were added to saturation of the MB dye. For the competition assays, solutions of MB and heparin at fixed concentrations were titrated with increasing amounts of SICHI or CSIC02–04 peptoids. Then, the relative increase in absorbance at 665 nm, due to release of MB from the MB–heparin complex when adding either SICHI or CSIC02–04 to the cuvette, can be plotted vs. the charge ratio considering their respective concentrations and that all the peptoids have three positive charges, and heparin has four negative charges per disaccharide unit. With this information, the charge excess for 50% of displacement of the MB dye (CE50) for each compound can be calculated for comparison. Potentiometric titrations were carried out in a reaction vessel thermostated with a water bath at 25.0 ± 0.1 °C under nitrogen atmosphere, and 0.15 M NaCl was used as the supporting electrolyte. The titrant was delivered by a precision microburette. The potentiometric measurements were made with a pH-mV meter. The reference electrode was an Ag/AgCl electrode in saturated KCl solution. The acquisition of the emf data was performed with the computer program Tiamo 2.3.1. […]

Sema3A = system: Sema3A; design: method as in PMID 27028639; settings: cited from earlier work
Nrp1 = system: Nrp1; design: method as in PMID 27028639; settings: cited from earlier work
[7] = biological target: the molecule itself; assay: 1H-15N NMR spectra; 1H-15N NMR spectra of LCTWT acquired without and with reducing agent TCEP; monomer and dimer

Molecule: SCTRR/QH: SCT construct bearing two mutations, R730Q and R733H (VWKRDQKQHRQRPGHTPGNSNKWKHLQENKKGRNRRTHEFERAPRSV; UniProt Q14563 725-771, looked up, variant R730Q R733H)
- binding to CS-A ([1]; immobilized biotinylated CS-A): completely abrogated
- elution of the mutated protein relative to SCTWT ([2]; heparin affinity chromatography): slightly earlier elution

Molecule: LCTWT: recombinant Sema3A C-terminal construct 716-771 incorporating the cysteine (NTMDEFCEQVWKRDRKQRRQRPGHTPGNSNKWKHLQENKKGRNRRTHEFERAPRSV; also: post-translational modification of the N-terminus, kind not given here)
- NaCl concentration at elution under reducing conditions ([2]; 5 mM DTT): ~ 0.92 M NaCl
- NaCl concentration at elution peak (single or major peak) ([2]; linear gradient to 2 M NaCl, Tris-HCl pH 7.5): ~ 1.12 M NaCl
- NaCl concentration at minor elution peak ([2]; linear gradient to 2 M NaCl, minor peak (monomeric form)): ~ 0.92 M NaCl

Molecule: SCTWT: recombinant Sema3A C-terminal polybasic tail construct, residues 725–771 (VWKRDRKQRRQRPGHTPGNSNKWKHLQENKKGRNRRTHEFERAPRSV; UniProt Q14563 725-771, looked up, fragment)
- affinity for heparin versus CS-A ([1]; comparison of heparin and CS-A chips): higher affinity to heparin than to CS-A

Molecule: FS2: Sema3A C-terminal peptide 725-736, VWKRDRKQRRQR
- fold stronger affinity to heparin compared to NFS3 peptide [4]: 60 fold

Molecule: CCN(CC)CCNCC(=O)N(CCN1CCCC1)CC(=O)N(CCC1CCCN1C)CC(N)=O (stereo not drawn) [SICHI]
- in vitro effect on Sema3A chemorepulsive activity [5]: inhibition
- protonation state at neutral pH [6]: triprotonated
- binding to Sema3A (Sema3A): neither Sema3A or Nrp1 bind
- binding to Nrp1 (Nrp1): neither Sema3A or Nrp1 bind

B1: recombinant Sema3A C-terminal construct incorporating the cysteine (LCTWT, 716-771) (domain or fragment, human, UniProt Q14563 716-771, looked up)
chain: NTMDEFCEQVWKRDRKQRRQRPGHTPGNSNKWKHLQENKKGRNRRTHEFERAPRSV
modifications: also: post-translational modification of the N-terminus, kind not given here
notes: Semaphorin 3A (Sema3A), human, C-terminal region 716-771 with the cysteine (Cys722 as printed) between the Ig domain and the basic tail; The methods say that the SCT constructs were made without any fusion tag in E. coli BL21 (DE3) and purified by cation exchange and reverse phase; source: recombinant
- binding result [7]: binds

Other lines, results leading:

- displacement of FS3 peptide from heparin agarose resin [3]: incapable to displace
Molecule: CCN(CC)CCN(CC(=O)N(CCN1CCCC1)CC(=O)NCCC1CCCN1C)C(=O)OCc1ccccc1 (stereo not drawn) [CSIC04]

- displacement of FS2 peptide from heparin agarose resin ([3]; WaterLOGSY, 1:1 peptoid/FS2, both 1 mM): not
- displacement of FS3 peptide from heparin agarose resin [3]: incapable to displace
Molecule: CCN(CC)CCNCC(=O)N(CCN1CCCC1)CC(=O)NCCC1CCCN1C (stereo not drawn) [CSIC03]
